{
  "source": "patent US20090062309A1",
  "about": "“Therapeutic compositions for the treatment of cardiovascular diseases and methods for use therefor” (priority 2007, published 2009)",
  "key": {"[1]": {"system": "subjects with CHD having decreased RBC K content", "type": "in vivo, human", "description": "Subjects were evaluated by clinical angina (CCS angina Class II-IV), dyspnea, or arrhythmia.\nExclusion Criteria: Evidence of acute coronary syndrome, AMI, stroke or cardiac arrhythmias; NYHA class III-IV of heart failure, hyperkalemia. Informed consent was obtained in all. Other non CHD causes of chest pain, dyspnea, and arrhythmia had been ruled out.\nIn addition to that, a single dose of calcium gluconolactate (1 g/daily) was given to all subjects having plasma ionized ICa^2+ ≦1.1 mmol/L, while other Laboratory correction and drug assessment were conducted across the first 3-month period (Table 1) Safety control (ECG, Ion Transport Laboratory, BIA, Non-Invasive Hemodynamic) was obtained at 1, 3 and 6 months and 1 year. Clinical control was obtained weekly in the first month or as needed for physician or patient symptoms; thereafter a 3, 6 and 12 months.\nThe subjects were taken off any drug that might impair RBC transport, such as digitalis, β-blockers, or NSAID's, in subjects with RBC K^+ ≦90.2 mmol/L cell. Oral calcium gluconolactate (1 g/daily) was administered in all subjects with plasma ionized calcium ≦1.1 mmol/L. Subjects had correction of other plasma electrolyte abnormalities. The subjects were taken off any drug that may affect ventricular repolarization, as digoxin, calcium channel blockers (CCB), diuretics, β-blockers, or the like. […] Anti-aggregants or aspirin in subjects free of angina were discontinued after the 3rd month of treatment.\nAll subjects underwent: a) Serial ECG for LVH by Cornell or Sokolow-Lyon Criteria (QRS duration times Cornell voltage: R aVL+SV3, with 6 mm [added in women >2440 mm×ms], or Sokolow-Lyon voltage: [SV1+RV5/V6] >38 mm; along with LV strain pattern (classical ST-segment depressed, with inverted T-waves), or LVH voltage criteria with mild LV strain pattern (isoelectric, biphasic or non-symmetrical negative T-waves, without ST-segment depression), and ECG criteria for infarction and/or ischemia (Q-waves from previous AMI, decreased R-wave height, non-progressive R-wave voltages in precordial leads, ST-segment elevation […] often referred as injury current, ST-segment depression ≧[…] often downsloping from the J point, rectification of the ST segment, and isoelectric, biphasic, negative or inverted T-wave), intraventricular conduction disturbance, and arrhythmias); b) Non-invasive hemodynamic study (DP200M) for cardiac parameters (LV Ejection Time (LVET), LV dP/dT (LV delta pressure-time), Cardiac output and index (CO, Cl), Stroke Volume (SV), Pulse Wave Analysis (PWA) of Central Aortic Blood Pressure (BP), Aortic Systolic (SBP), Diastolic (DBP) and mean (m) BP, Aortic augmentation index; inflection point and reflected wave analysis, Systemic Vascular Resistance and Compliance (SVR/SVC), and Brachial Artery Distensibility (BAD), Brachial Artery Compliance (BAC); c) Ion Transport Studies for RBC (K^+, Na^+) plasma (K^+, Na^+, Cl^−, ICa^2+, Mg^2+), and 12-hours night urinary volume (K^+, Na^+, Cl^−, pH), d) Bio-Impedance Analysis (BIA, Quantum X, RJL Systems, MI, USA) for Total body Potassium, Total body water/Extracellular Water, Fat Mass (FM) and Fat-Free Mass (FFM) and e) Echocardiography was obtained at entry, 6 and 12 months periods."}, "[2]": {"system": "subjects with stable chronic angina", "description": "A double blind placebo-controlled, randomized trial was conducted in 25 subjects with stable chronic angina. […] All of the subjects were evaluated before and after the double-blind trial, thereby measuring a subject's angina clinical score (CCS Angina Class), ECG, and exercise tolerance as assessed by the Duke Treadmill Score (DTS). Methods for using the DTS with patients in need of coronary intervention and its acceptance as an accurate predictor of cardiac morbidity and mortality in CHD and CAD patients has been well established. See for example Azeem T., et al., Int J. Clin. Pract. (2001), 55(1):10-13. […] Participants' clinical and cardiac parameters were evaluated either monthly, quarterly, half yearly and yearly."}, "cell K uptake by RBC": {"system": "cell K uptake by RBC", "experiment": "long-term assay from our laboratory: cell K uptake by RBC (results not shown)"}, "[3]": {"conditions": "cited from earlier work"}, "[4]": {"conditions": "1-month trial, Amiloride 5 mg/d, N=14"}, "[5]": {"conditions": "1-month, Amiloride 5 mg/d, N=14"}},
  "data": [
    {"smiles": "Cl.NC(N)=NC(=O)c1nc(Cl)c(N)nc1N.O.O", "note": "[Amiloride, 3,5-diamino-6-chloro-N-(diaminomethylene) pyrazinecarboxamide monohydrochloride, dihydrate]", "values": [
      {"measurement": "RBC K", "setting": "[1]; 1st month, baseline 84.5±4, p<0.001", "value": "93.5±4", "unit": "mmol/L cell"},
      {"measurement": "cardiovascular events or death", "setting": "[1]; 2 years of follow-up", "value": 0, "unit": "%"},
      {"measurement": "RBC K+", "setting": "[1]; 3rd month", "value": "remained improved"},
      {"measurement": "subjects with improved ST-segment depression or elevation and isoelectric, biphasic or inverted T-wave", "setting": "[1]; 3rd month, CHD subjects, no nitrates, lower anti-aggregants or aspirin", "value": 74, "unit": "%"},
      {"measurement": "LV Strain pattern", "setting": "[1]; 3rd month, hypertensives", "value": "improved or almost reversed"},
      {"measurement": "LVH voltage criteria", "setting": "[1]; 3rd month, hypertensives, p<0.001", "value": "significantly decreased"},
      {"measurement": "normotensive subjects with marked improved ST-segment depression or elevation and inverted T-waves", "setting": "[1]; 6th month, 3 out 4", "value": 75, "unit": "%"},
      {"measurement": "hypertensives subjects with improved LV Strain pattern", "setting": "[1]; 6th month, about 4 out of 5", "value": "~80", "unit": "%"},
      {"measurement": "ECG-LVH voltage, Sokolow-Lyon criteria", "setting": "[1]; 6th month, baseline 29.3±5.2, p=0.001", "value": "25.1±3.2", "unit": "mm"},
      {"measurement": "ECG-LVH voltage, Cornell", "setting": "[1]; 6th month, baseline 2577±509, p<0.02", "value": "2353±254", "unit": "mm×ms"},
      {"measurement": "subjects with previous inferior infarction whose ECGs remained unchanged for Q-waves", "setting": "[1]; 6th month, these subjects were free of angina", "value": 15, "unit": "%"},
      {"measurement": "QTc interval", "setting": "[1]; human, in vivo", "value": "prolonged"},
      {"measurement": "hyperkalemia", "setting": "[1]; human, in vivo", "value": "never observed"},
      {"measurement": "SVC (Systemic Vascular Compliance)", "setting": "[1]; hypertensives, 1st month, baseline 0.92±0.16, p<0.003", "value": "1.22±0.21", "unit": "ml/mmHg"},
      {"measurement": "LV dP/dT", "setting": "[1]; hypertensives, 1st month, baseline 1757±313, p<0.001", "value": "1302±276", "unit": "mmHg/s"},
      {"measurement": "BA Compliance", "setting": "[1]; hypertensives, 1st month, baseline printed 0.57±0.021, p<0.005", "value": "0.069±0.02", "unit": "ml/mmHg"},
      {"measurement": "angina, single subject FIG. 7B", "setting": "[1]; normotensive diabetic, after 5 months of Amiloride and calcium treatment", "value": "angina reversed"},
      {"measurement": "ECG change, single subject FIG. 3C", "setting": "[1]; normotensive person, bypass surgery, infarction, instable angina, 6-months Amiloride and calcium", "value": "reversion of T-wave alterations"},
      {"measurement": "angina, single subject FIG. 7A", "setting": "[1]; person, angina, diabetes, hypertension, after 4 months of Amiloride treatment", "value": "the angina reversed"},
      {"measurement": "clinical change, single subject FIG. 5B", "setting": "[1]; person, hypertension, LVH, 3-months Amiloride, antihypertensive and vasodilators drugs", "value": "reversion of clinical symptoms of exertional angina, and palpitations"},
      {"measurement": "clinical change, single subject FIG. 4B", "setting": "[1]; person, hypertension, infarction, heart failure, 2 months after addition of Amiloride and calcium gluconolactate", "value": "clinical improvement of angina (3 weeks), heart failure and hypertension"},
      {"measurement": "angina, single subject FIG. 6B", "setting": "[1]; person, hypertension, post-infarction angina, Amiloride treatment", "value": "rapid reversion of angina (7 days)"},
      {"measurement": "ECG T-waves, single subject FIG. 4B", "setting": "[1]; person, 2 months after addition of Amiloride and calcium gluconolactate", "value": "T-waves were improved"},
      {"measurement": "ECG T-wave, single subject FIG. 6B", "setting": "[1]; person, after 5-months of Amiloride treatment", "value": "reversion of T-wave inversion"},
      {"measurement": "free of angina and symptoms of heart failure", "setting": "[1]; within 1st month, Amiloride 5 mg/daily (calcium gluconolactate 1 g/daily if plasma ICa2+ ≦1.1 mmol/L), 75 CHD subjects", "value": "all subjects were free of angina and symptoms of heart failure"},
      {"measurement": "Double-Product", "setting": "[2]; [4]", "value": "25700 ± 4633"},
      {"measurement": "Peak Exercise BP, diastolic", "setting": "[2]; [4]", "value": "94 ± 10"},
      {"measurement": "Peak Exercise BP, systolic", "setting": "[2]; [4]", "value": "177 ± 19"},
      {"measurement": "Peak Exercise HR", "setting": "[2]; [4]", "value": "144 ± 19"},
      {"measurement": "Exercise Time", "setting": "[2]; 1-month trial, Amiloride 5 mg/d, N=14, P<0.05 vs placebo", "value": "7.95 ± 2.8", "unit": "min"},
      {"measurement": "High Risk Value: Subjects (%)", "setting": "[2]; [5]", "value": 35.7, "unit": "%"},
      {"measurement": "Low Risk Value: Subjects (%)", "setting": "[2]; [5]", "value": 64.3, "unit": "%"},
      {"measurement": "subjects with improved ST-T alterations of ischemia", "setting": "[2]; 4 weeks, Amiloride 5 mg daily, 9 out of 14", "value": 64, "unit": "%"},
      {"measurement": "subjects free of angina", "setting": "[2]; 4 weeks, Amiloride 5 mg daily, Twelve out of 14 subjects", "value": 71, "unit": "%"},
      {"measurement": "adverse episodes of cardiac arrhythmia", "setting": "[2]; 4 weeks, Amiloride 5 mg daily, exercise treadmill test", "value": "without any adverse episodes of cardiac arrhythmia"},
      {"measurement": "1-Month DTS (Duke Treadmill Score)", "setting": "[2]; Amiloride 5 mg/d, N=14, Baseline DTS −2.28 ± 7.0", "value": "7.90 ± 4.2"},
      {"measurement": "High Risk Value (DTS), changes from baseline to 1-month", "setting": "[2]; Amiloride 5 mg/d, high risk subjects", "value": "*−3 ± −2.6"},
      {"measurement": "Low Risk Value (DTS), changes from baseline to 1-month", "setting": "[2]; Amiloride 5 mg/d, low risk subjects", "value": "*8.6 ± 2.3"},
      {"measurement": "hereditable defect in cell K uptake by RBC", "setting": "cell K uptake by RBC", "value": "reverses a hereditable defect in cell K uptake by RBC"},
      {"measurement": "hyperkalemia as secondary effect", "setting": "[3]; as disclosed in various medical textbooks", "value": "hyperkalemia is a common secondary effect"},
      {"measurement": "hyperkalemia", "setting": "[3]; intravenous doses of Amiloride (1 mg/Kg), subjects with chronic kidney disease, Levy Y. et al. 2008", "value": "absence of hyperkalemia"},
      {"measurement": "excretion", "setting": "[3]; upon ingestion, humans", "value": "excreted from the kidneys unchanged"}
    ]}
  ]
}
